Patent US8895585B2, “Nicotinamide derivative or salt thereof” (FUJIFILM Corporation, priority 2010, dated 2014)
Where two headings read alike, the source gives them in different places.

Molecular target: T1, glutathione S-transferase (GST)-fused full-length human Syk protein (Homo sapiens, UniProt P43405)
T1 construct: (GST)-fused full-length human Syk protein; GST (glutathione S-transferase); purchased Carna Biosciences
Assay: Syk enzyme assay
Type: biochemical
Experimental: A glutathione S-transferase (GST)-fused full-length human Syk protein (Carna Biosciences), which had been generated using a Baculovirus expression system, was used in the Syk enzyme assay.
15 μl of a reaction solution (1.2 ng Syk, 20 mM HEPES, 10 mM MgCl2, 50 mM NaCl, 2 mM DTT, 0.05% BSA, pH 7.0) containing a Syk protein and a predetermined concentration of a test compound was shaken for 2 minutes, and it was then left at rest at room temperature for 13 minutes. Thereafter, 5 μl of Biotin-EDPDYEWPSA-NH2 (final concentration: 0.4 μM) serving as a substrate peptide and 5 μl of ATP (final concentration: 27 μM) were added to the reaction solution, and the obtained mixture was then shaken for 2 minutes. The reaction solution was further left at rest at room temperature for 40 minutes, so as to carry out an enzyme reaction.
Thereafter, 50 μl of a reaction termination solution [5 μg/ml Streptavidin, 0.18 μg/ml PT66-K, 30 mM HEPES (pH 7.0), 150 mM KF, 75 mM EDTA, 0.15% BSA, 0.075% Tween20], which contained Streptavidin-Xlent (Cisbio) and Mab PT66-K (Cisbio), was added to the reaction solution to terminate the enzyme reaction. At the same time, the reaction solution was left at rest at room temperature for 1 hour, so as to carry out an antigen-antibody reaction. Thereafter, using EnVision (PerkinElmer), the time-resolved fluorescence was measured at 615 nm and 665 nm, so that the phosphorylation of the substrate peptide was measured.
In addition, the following are standards for evaluating IC50 of Syk-inhibitory activity used in Table 21. • A: Up to 10 nM • B: 10 to 50 nM • C: 50 to 100 nM • D: 100 to 1000 nM The set of numbers (XYZ-xyz) given in each Example number column indicates the corresponding Example number (Example XYZ-xyz) in Table 21.

[1] = Syk enzyme assay, Test Example 1, read-out: IC50 of Syk-inhibitory activity
[2] = read-out: Syk-inhibitory activity (IC50)

SMILES | IC50 [1] | IC50 [2]
COc1cc(Nc2nc(N[C@H](c3ccccc3)[C@@H](N)c3ccccc3)c(F)cc2C(N)=O)cc(OC)c1 (racemic) [Example 006-137, 6-(((1R,2S)-2-amino-1,2-diphenylethyl)amino)-2-((3,5-dimethoxyphenyl)amino)-5-fluoronicotinamide 6-(((1S,2R)-2-amino-1,2-diphenylethyl)amino)-2-((3,5-dimethoxyphenyl)amino)-5-fluoronicotinamide] | 10 to 50 nM | 
NC(=O)c1cc(F)c(N[C@H](c2ccccc2)[C@@H](N)c2ccccc2)nc1Nc1cccc(-n2nccn2)c1 (racemic) [Example 006-138, 2-((3-(2H-1,2,3-triazol-2-yl)phenyl)amino)-6-(((1R,2S)-2-amino-1,2-diphenylethyl)amino)-5-fluoronicotinamide 2-((3-(2H-1,2,3-triazol-2-yl)phenyl)amino)-6-(((1S,2R)-2-amino-1,2-diphenylethyl)amino)-5-fluoronicotinamide] | 10 to 50 nM | 
Cc1cncc(Nc2nc(N[C@H](c3ccccc3)[C@@H](N)c3ccccc3)c(F)cc2C(N)=O)c1 (racemic) [Example 006-140, 6-(((1R,2S)-2-amino-1,2-diphenylethyl)amino)-5-fluoro-2-((5-methylpyridin-3-yl)amino)nicotinamide 6-(((1S,2R)-2-amino-1,2-diphenylethyl)amino)-5-fluoro-2-((5-methylpyridin-3-yl)amino)nicotinamide] | 50 to 100 nM | 
NC(=O)c1cc(F)c(N[C@H](c2ccccc2)[C@@H](N)c2ccccc2)nc1Nc1ccc2cccnc2c1 (racemic) [Example 006-141, 6-(((1R,2S)-2-amino-1,2-diphenylethyl)amino)-5-fluoro-2-(quinolin-7-ylamino)nicotinamide 6-(((1S,2R)-2-amino-1,2-diphenylethyl)amino)-5-fluoro-2-(quinolin-7-ylamino)nicotinamide] | 100 to 1000 nM | 
C[C@H](N)[C@@H](C)Nc1nc(Nc2ccnc(-n3nccn3)c2)c(C(N)=O)cc1F (racemic) [Example 006-189, 2-((2-(2H-1,2,3-triazol-2-yl)pyridin-4-yl)amino)-6-(((2R,3S)-3-aminobutan-2-yl)amino)-5-fluoronicotinamide 2-((2-(2H-1,2,3-triazol-2-yl)pyridin-4-yl)amino)-6-(((2S,3R)-3-aminobutan-2-yl)amino)-5-fluoronicotinamide] | 10 to 50 nM | 
COCCn1ncc2cc(Nc3nc(N[C@H](C)[C@H](C)N)c(F)cc3C(N)=O)ccc21 (racemic) [Example 006-197, 6-(((2R,3S)-3-aminobutan-2-yl)amino)-5-fluoro-2-((1-(2-methoxyethyl)-1H-indazol-5-yl)amino)nicotinamide 6-(((2S,3R)-3-aminobutan-2-yl)amino)-5-fluoro-2-((1-(2-methoxyethyl)-1H-indazol-5-yl)amino)nicotinamide] | 10 to 50 nM | 
NC(=O)c1cc(F)c(N[C@@H]2CCCC[C@@H]2N)nc1Nc1ccc(-c2ccccc2)nc1 (relative stereo) [Example 2-9, 6-(cis-2-aminocyclohexylamino)-5-fluoro-2-((6-phenylpyridin-3-yl)amino)nicotinamide] |  | ≤ 1000 nM
COc1ccc(Nc2nc(N[C@@H]3CCCC[C@@H]3N)c(F)cc2C(N)=O)cn1 (relative stereo) [Example 2-10, 6-(cis-2-aminocyclohexylamino)-5-fluoro-2-((6-methoxypyridin-3-yl)amino)nicotinamide] |  | ≤ 1000 nM
CC(=O)Nc1cc(Nc2nc(N[C@@H]3CCCC[C@@H]3N)c(F)cc2C(N)=O)ccn1 (relative stereo) [Example 004-048] | 10 to 50 nM | 
CN1CCN(c2cncc(Nc3nc(N[C@@H]4CCCC[C@@H]4N)c(F)cc3C(N)=O)c2)CC1 (relative stereo) [Example 004-052] | 10 to 50 nM | 
NC(=O)c1cc(F)c(N[C@@H]2CCCC[C@@H]2N)nc1Nc1cc(C(F)(F)F)cc2[nH]ccc12 (relative stereo) [Example 004-085, 6-(cis-2-aminocyclohexylamino)-5-fluoro-2-((6-(trifluoromethyl)-1H-indol-4-yl)amino)-nicotinamide] | < 10 nM | 
NC(=O)c1cc(F)c(N[C@@H]2CCCC[C@@H]2N)nc1Nc1ccc2c(cnn2CC2CC2)c1 (relative stereo) [Example 004-090, 6-(cis-2-aminocyclohexylamino)-2-((1-(cyclopropylmethyl)-1H-indazol-5-yl)amino)-5-fluoronicotinamide] | 10 to 50 nM | 
NC(=O)c1cc(F)c(N[C@@H]2CCCC[C@@H]2N)nc1Nc1cncc(C(F)(F)F)c1 (relative stereo) [Example 004-098, 6-(cis-2-aminocyclohexylamino)-5-fluoro-2-((5-(trifluoromethyl)pyridin-3-yl)amino)-nicotinamide] | 10 to 50 nM | 

Now from value to compound:

IC50 [1] | IC50 [2] | SMILES
< 10 nM |  | NC(=O)c1cc(F)c(N[C@H](c2ccccc2)[C@@H](N)c2ccccc2)nc1Nc1ccc2ncccc2c1 (racemic) [Example 006-135, 6-(((1R,2S)-2-amino-1,2-diphenylethyl)amino)-5-fluoro-2-(quinolin-6-ylamino)nicotinamide 6-(((1S,2R)-2-amino-1,2-diphenylethyl)amino)-5-fluoro-2-(quinolin-6-ylamino)nicotinamide]
< 10 nM |  | Cn1ncc2cc(Nc3nc(N[C@H](c4ccccc4)[C@@H](N)c4ccccc4)c(F)cc3C(N)=O)ccc21 (racemic) [Example 006-136, 6-(((1R,2S)-2-amino-1,2-diphenylethyl)amino)-5-fluoro-2-((1-methyl-1H-indazol-5-yl)amino)nicotinamide 6-(((1S,2R)-2-amino-1,2-diphenylethyl)amino)-5-fluoro-2-((1-methyl-1H-indazol-5-yl)amino)nicotinamide]
< 10 nM |  | COCCOc1ccc2cc(Nc3nc(N[C@H](C)[C@H](C)N)c(F)cc3C(N)=O)cnc2c1 (racemic) [Example 006-183, 6-(((2R,3S)-3-aminobutan-2-yl)amino)-5-fluoro-2-((7-(2-methoxyethoxy)quinolin-3-yl)amino)nicotinamide 6-(((2S,3R)-3-aminobutan-2-yl)amino)-5-fluoro-2-((7-(2-methoxyethoxy)quinolin-3-yl)amino)nicotinamide]
< 10 nM |  | Cc1cc(Nc2nc(N[C@@H]3CCCC[C@@H]3N)c(F)cc2C(N)=O)cs1 (relative stereo) [Example 004-057]
< 10 nM |  | NC(=O)c1cc(F)c(N[C@@H]2CCCC[C@@H]2N)nc1Nc1cc(N2CCOCC2)nc2[nH]ccc12 (relative stereo) [Example 004-066, 6-(cis-2-aminocyclohexylamino)-5-fluoro-2-((6-morpholino-1H-pyrrolo[2,3-b]pyridin-4-yl)-amino)nicotinamide]
< 10 nM |  | NC(=O)c1cc(F)c(N[C@@H]2CCCC[C@@H]2N)nc1Nc1cc(-n2nccn2)nc2[nH]ccc12 (relative stereo) [Example 004-067, 2-((6-(2H-1,2,3-triazol-2-yl)-1H-pyrrolo[2,3-b]pyridin-4-yl)amino)-6-(cis-2-aminocyclohexylamino)-5-fluoronicotinamide]
< 10 nM |  | NC(=O)c1cc(F)c(N[C@@H]2CCCC[C@@H]2N)nc1Nc1ccc2[nH]ccc2c1 (relative stereo) [Example 004-070, 2-((1H-indol-5-yl)amino)-6-(cis-2-aminocyclohexylamino)-5-fluoronicotinamide]
< 10 nM |  | NC(=O)c1cc(F)c(N[C@@H]2CCCC[C@@H]2N)nc1Nc1cc(F)c2c(ccn2CCN2CCOCC2)c1 (relative stereo) [Example 004-080, 6-(cis-2-aminocyclohexylamino)-5-fluoro-2-((7-fluoro-1-(2-morpholinoethyl)-1H-indol-5-yl)amino)nicotinamide]
< 10 nM |  | COCCn1ccc2cc(Nc3nc(N[C@@H]4CCCC[C@@H]4N)c(F)cc3C(N)=O)cc(F)c21 (relative stereo) [Example 004-081, 6-(cis-2-aminocyclohexylamino)-5-fluoro-2-((7-fluoro-1-(2-methoxyethyl)-1H-indol-5-yl)-amino)nicotinamide]
< 10 nM |  | NC(=O)c1cc(F)c(N[C@@H]2CCCC[C@@H]2N)nc1Nc1cc(F)cc2c1ccn2CCN1CCOCC1 (relative stereo) [Example 004-083, 6-(cis-2-aminocyclohexylamino)-5-fluoro-2-((6-fluoro-1-(2-morpholinoethyl)-1H-indol-4-yl)amino)nicotinamide]
< 10 nM |  | COCCn1ccc2c(Nc3nc(N[C@@H]4CCCC[C@@H]4N)c(F)cc3C(N)=O)cc(F)cc21 (relative stereo) [Example 004-084, 6-(cis-2-aminocyclohexylamino)-5-fluoro-2-((6-fluoro-1-(2-methoxyethyl)-1H-indol-4-yl)amino)nicotinamide]
